Measurements reported in US11814366B2, “Antiviral compounds and use thereof” (UNIVERSITA DEGLI STUDI DI SIENA, priority 2018, dated 2023).

Legend:
ZIKAV = assay: ZIKA virus plaque reduction assay on Vero cells; assay type: cell-based, Zika virus (PRVABC59)
HSV-1 = HSV-1 plaque reduction assay on Vero cells; assay type: cell-based, Herpes 1 virus (HSV-1); conditions: Human alphaherpesvirus 1, Vero
[1] = Cell viability (MTS) assay, MA104 cells; assay type: cell-based; conditions: African green monkey, conditions of the HRoV assay
Experimental: Cell viability was measured using the MITS [3-(4,5-dimethylthiazol-2-yl)-5-(3 carboxy methoxy phenyl)-2-(4-sulfophenyl)-2H-tetrazolium] assay. Cell cultures were seeded in 96-well plates and were incubated with different concentrations of compounds of the invention in triplicate under the same experimental conditions described for the antiviral assays. Cell viability was determined using the CellTiter 96 Proliferation Assay Kit (Promega, Madison, WI, USA) according to the manufacturer's instructions. Absorbances were measured using a Microplate Reader (Model 680, BIORAD) at 490 nm. The effect on cell viability at different concentrations of the compound was expressed as a percentage, by comparing absorbances of treated cells with those of cells incubated with culture medium and equal volumes of vehicle. The 50% cytotoxic concentrations (CC50) and 95% confidence intervals (CIs) were determined using Prism software (Graph-Pad Software, San Diego, CA).

DENV-2 = assay: DENV plaque reduction assay on Huh-7 cells; assay type: cell-based, Dengue virus
Experimental: The effect of compounds on DENV infection was evaluated by plaque reduction assay. Huh-7 cells were pre-plated 24 h in advance in 24-well plates at a density of 10^5 cells. Concentrations of compounds ranging from 50 μM to 0.0001 μM in DMSO were mixed with DENV-2 (MOI 0.01 pfu/cell) and incubated for 1 hour at 37° C. The mixtures were subsequently added to the cells, which were then incubated at 37° C. for 2 h. The virus inoculum was then removed and the cells washed and overlaid with a medium containing 1.2% methylcellulose (Sigma). After further incubation at 37° C. for 72 h cells were fixed and stained with 0.1% crystal violet in 20% ethanol and viral plaques counted. The effective concentration producing 50% reduction in plaque formation (EC50) were determined using Prism software by comparing drug-treated wells with wells treated with medium and DMSO. The selectivity index (SI) was calculated by dividing the CC50 by the EC50 value.

Question: With `O=C1NC(=S)N(CCc2ccccc2)C(=O)/C1=C\c1ccc(-c2ccc(C(=O)O)c(O)c2)[nH]1` [Compound 15b, (Z)-4-(5-((4,6-dioxo-1-phenethyl-2-thioxotetrahydropyrimidin-5(2H)-ylidene)methyl)-1H-pyrrol-2-yl)-2-hydroxybenzoic Acid] as the compound, how does the SI selectivity index (ZIKAV; ZIKAV, CC50 divided by EC50) read?
Answer: Its SI selectivity index is over 2563.

Question: What about the EC50 (ZIKAV; Zika virus, Vero, ZIKAV infected cells) of the same compound?
Answer: The EC50 was 43.3 nM.

Question: And the EC50 (HSV-1)?
Answer: The EC50 was 454 nM.

Question: What about the EC90 (HSV-1) of the same compound?
Answer: The EC90 was 3720 nM.

Question: And the CC50 [1]?
Answer: Its CC50 is over 300000 nM.

Question: And the SI selectivity index (DENV-2; DENV-2, CC50 divided by EC50)?
Answer: The SI selectivity index was 5.6.

Question: What about the EC50 (DENV-2; Dengue virus, DENV2, Huh-7, DENV-2 infected cells) of the same compound?
Answer: Its EC50 is 1400 nM.
